Source: patent US20060100215A1, “8A,9-dihydro-4aH-isothiazolo[5,4-b]quinoline-3,4-diones and related compounds as anti-infective agents” (priority 2004, published 2006)
In brackets after ≈: the same amount, converted by molar mass.

Columns and labels:
[1] = system: S. aureus ATCC 29213; experiment: Minimum inhibitory concentration (MIC) assay, broth microdilution; assay type: cell-based; conditions: Staphylococcus aureus, ATCC29213, Mueller-Hinton II broth, 37° C., 18 to 24 hours, lowest concentration that inhibited visible growth
Procedure: (§1) The antimicrobial activity of the compounds of the invention may be evaluated by a number of methods, including the following visual minimum inhibitory concentration (MIC) assay. This assay determines the minimum concentration of compound required to inhibit growth of a bacterial strain. Minimum Inhibitory Concentration (MIC) Assay Whole-cell antibacterial activity is determined by broth microdilution using conditions recommended by the NCCLS (see National Committee for Clinical Laboratory Standards. 2001. Performance standards for antimicrobial susceptibility testing: 11th informational supplement. Vol. 21, no. 1, M100-S11. National Committee for Clinical Laboratory Standards, Wayne, Pa.). Test compounds are dissolved in DMSO and diluted 1:50 in Mueller-Hinton II broth (Becton-Dickinson) to produce a 256 μg/ml stock solution. In a 96-well microtiter plate, the compound solution is serially two-fold diluted in Mueller-Hinton II broth. After the compounds are diluted, a 50 μl aliquot of the test organism (˜1×10^6 cfu/mL) is added to each well of the microtiter plate. The final test concentrations ranges from 0.125-128 μg/mL. Inoculated plates are incubated in ambient air at 37° C. for 18 to 24 hours. The organisms selected for testing included laboratory strains S. aureus ATCC 29213 and E. coli ATCC 25922 (strains purchased from American Type Culture Collection, Manassas, Va.). The minimum inhibitory concentration (MIC) is determined as the lowest concentration of compound that inhibited visible growth of the test organism.

[2] = system: E. coli ATCC 25922; experiment: as above; assay type: cell-based; conditions: Escherichia coli, ATCC25922, Mueller-Hinton II broth, 37° C., 18 to 24 hours, lowest concentration that inhibited visible growth
Procedure: as §1

Row | Compound | MIC [1] [µg/mL] | MIC [2] [µg/mL]
1 | CO/N=C1\CN(c2cc3c(cc2F)c(=O)c2c(=O)[nH]sc2n3C2CC2)CC1CN (stereo not drawn) [Compound 13] | 0.05 (≈ 0.12 µM) | < 0.05
2 | CO/N=C1\CN(c2cc3c(cc2F)c(=O)c2c(=O)[nH]sc2n3C2CC2)CC1(C)CN (stereo not drawn) [Compound 27] | < 0.05 | < 0.05
3 | CON=C1CCN(c2cc3c(cc2F)c(=O)c2c(=O)[nH]sc2n3C2CC2)CC1 [Compound 32, 9-Cyclopropyl-6-fluoro-7-(4-methoxyimino-piperidin-1-yl)-9H-isothiazolo[5,4-b]quinoline-3,4-dione] | < 0.05 | < 0.05

More lines, now with the values ahead:

Row | MIC [1] [µg/mL] | MIC [2] [µg/mL] | Compound
4 | < 0.1 | < 0.125 | CO/N=C1\CN(c2nc3c(cc2F)c(=O)c2c(=O)[nH]sc2n3C2CC2)CC1CN (stereo not drawn) [Compound 42, 7-(3-Aminomethyl-4-methoxyimino-pyrrolidin-1-yl)-9-cyclopropyl-6-fluro-9H-1-thia-2,8,9-triaza-cyclopenta[b]naphtalene-3,4-dione]
5 | < 0.05 | < 0.1 | CO/N=C1\CN(c2cc3c(cc2F)c(=O)c2c(=O)[nH]sc2n3C2CC2)CC1CO (stereo not drawn) [Compound 41, 9-Cyclopropyl-6-fluoro-7-(3-hydroxymethyl-4-methoxyimino-pyrrolidin-1-yl)-9H-isothiazolo[5,4-b]quinoline-3,4-dione]
6 | < 0.05 | 0.125 (≈ 0.279 µM) | CO/N=C1\CN(c2c(F)cc3c(=O)c4c(=O)[nH]sc4n(C4CC4)c3c2OC)CC1CN (stereo not drawn) [Compound 39, 7-(3-Aminomethyl-4-methoxyimino-pyrrolidin-1-yl)-9-cyclopropyl-6-fluoro-8-methoxy-9H-isothiazolo[5,4-b]quinoline-3,4-dione]
